Results reported in patent US20260250290A1 (BRISTOL-MYERS SQUIBB COMPANY, priority 2023, published 2026).

target: T1, SGK1 (Homo sapiens, UniProt O00141); experiment: SGK1 inhibition Assay B (Echo mass spectrometry of phosphorylated peptide product); type: biochemical; conditions: 60 min at room temperature
T1 sequence (O00141 1-431): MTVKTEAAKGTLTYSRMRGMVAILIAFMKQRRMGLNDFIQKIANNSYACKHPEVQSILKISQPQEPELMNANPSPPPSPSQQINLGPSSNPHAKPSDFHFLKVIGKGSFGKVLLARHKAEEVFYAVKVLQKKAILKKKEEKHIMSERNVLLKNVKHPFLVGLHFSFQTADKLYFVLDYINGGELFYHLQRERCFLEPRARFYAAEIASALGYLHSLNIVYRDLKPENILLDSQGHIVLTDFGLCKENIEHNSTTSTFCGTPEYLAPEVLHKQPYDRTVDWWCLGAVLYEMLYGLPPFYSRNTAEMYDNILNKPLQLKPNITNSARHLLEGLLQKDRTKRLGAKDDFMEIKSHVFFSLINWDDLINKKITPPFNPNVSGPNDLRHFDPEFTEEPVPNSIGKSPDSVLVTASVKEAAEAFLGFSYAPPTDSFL
Protocol: 20 μl of 2 nM SGK1 were added in 20 mM Hepes+10 mM MgCl2+0015% Brij-35+4 mM DTT+0.05 mg/ml BSA and the reaction incubated for 60 min at room temperature. The enzymatic reaction was quenched by addition 10 μl of 1% Formic Acid+150 nM Internal Standard: FITC-(Ahx)KKRNRR(pS)VA^—OH (final concentration). The plates are spun down at 3700 RPM for 10 minutes to remove all precipitate. Samples were loaded on to the Sciex Echo Mass Spec attached to a Sciex 6500 equipped with ESI and was used to analyze the phosphorylated peptide product. MRM transition of product and internal standard were monitored at m/z 755 to 937.5 and m/z 757.7 to 941.3 respectively. Peak area of analyte was normalized with internal standard.
Dose response curves were generated to determine the concentration required for inhibiting 50% of the enzyme activity. Compounds were dissolved at 10 mM in dimethylsulfoxide (DMSO) and evaluated at eleven concentrations.

Row | Structure (SMILES) | IC50 [nM]
1 | Cc1nc(OC2CCC(N3CC(O)C3)CC2)c(C(=O)N[C@@H]2CCCN(c3cc(C4=CC(=O)OC4)n4ncnc(N)c34)C2)s1 (stereo partly drawn) [Example 997, (R)-N-(1-(4-amino-7-(5-oxo-2,5-dihydrofuran-3-y1)pyrrolo[2,1-f] [1,2,4]triazin-5-y1)piperidin-3-y1)-4-((4~(3-hydroxyazetidin-1-yl)cyclohexyl)oxy)-2-methylthiazole-5-carboxamide] | 0.6
2 | Cc1nc(OC2CCC(N3CCC3)CC2)c(C(=O)N[C@@H]2CCCN(c3cc(C4=CC(=O)OC4)n4ncnc(N)c34)C2)s1 (stereo partly drawn) [Example 998, (R)-N-(1-(4-amino-7-(5-oxo-2,5-dihydrofuran-3-y1)pyrrolo[2,1-f] [1,2,4]triazin-5-yl)piperidin-3-y1)-4-((4-(azetidin-1-yl)cyclohexyl)oxy)-2-methylthiazole-5-carboxamide] | 1.1
3 | Cc1nc(OC2CCC(N3CC(C)C3)CC2)c(C(=O)N[C@@H]2CCCN(c3cc(C4=CC(=O)OC4)n4ncnc(N)c34)C2)s1 (stereo partly drawn) [Example 999, (R)-N-(1-(4-amino-7-(5-oxo-2,5-dihydrofuran-3-y1)pyrrolo[2,1-f] [1,2,4]triazin-5-yl)piperidin-3-y1)-2-methyl-4-((4-(3-methylazetidin-1-yl)cyclohexyl)oxy)thiazole-5-carboxamide] | 0.7
4 | COCC(C)(C)NC1CCC(Oc2nc(C)sc2C(=O)N[C@@H]2CCCN(c3cc(C4=CC(=O)OC4)n4ncnc(N)c34)C2)CC1 (stereo partly drawn) [Example 1000, (R)—N-(1-(4-amino-7-(5-oxo-2,5-dihydrofuran-3-yl)pyrrolo[2,1-f][1,2,4]triazin-5-yl)piperidin-3-yl)-4-((4-((1-methoxy-2-methylpropan-2-yl)amino)cyclohexyl)oxy)-2-methylthiazole-5-carboxamide] | 0.7
5 | CCC(C)(C)NC1CCC(Oc2nc(C)sc2C(=O)N[C@@H]2CCCN(c3cc(C4=CC(=O)OC4)n4ncnc(N)c34)C2)CC1 (stereo partly drawn) [Example 1001, (R)—N-(1-(4-amino-7-(5-oxo-2,5-dihydrofuran-3-yl)pyrrolo[2,1-f][1,2,4]triazin-5-yl)piperidin-3-yl)-2-methyl-4-((4-(tert-pentylamino)cyclohexyl)oxy)thiazole-5-carboxamide] | 0.6
6 | Cc1nc(O[C@H]2CC[C@@H](NC3CCOCC3)CC2)c(C(=O)N[C@@H]2CCCN(c3cc(C4=CC(=O)OC4)n4ncnc(N)c34)C2)s1 [Example 1002, N—((R)-1-(4-amino-7-(5-oxo-2,5-dihydrofuran-3-yl)pyrrolo[2,1-f][1,2,4]triazin-5-yl)piperidin-3-yl)-2-methyl-4-(((1S,4S)-4-((tetrahydro-2H-pyran-4-yl)amino)cyclohexyl)oxy)thiazole-5-carboxamide] | 0.3
7 | CCC(CC)N[C@H]1CC[C@@H](Oc2nc(C)sc2C(=O)N[C@@H]2CCCN(c3cc(C4=CC(=O)OC4)n4ncnc(N)c34)C2)CC1 [Example 1003, N—((R)-1-(4-amino-7-(5-oxo-2,5-dihydrofuran-3-yl)pyrrolo[2,1-f][1,2,4]triazin-5-yl)piperidin-3-yl)-2-methyl-4-(((1S,4S)-4-(pentan-3-ylamino)cyclohexyl)oxy)thiazole-5-carboxamide] | 0.8
8 | [2H]C([2H])([2H])N([C@H]1CC[C@@H](Oc2nc(C)sc2C(=O)N[C@@H]2CCCN(c3cc(C4=CC(=O)OC4)n4ncnc(N)c34)C2)CC1)C([2H])([2H])[2H] [Example 1004, N—((R)-1-(4-amino-7-(5-oxo-2,5-dihydrofuran-3-yl)pyrrolo[2,1-f][1,2,4]triazin-5-yl)piperidin-3-yl)-4-(((1S,4S)-4-(bis(methyl-d3)amino)cyclohexyl)oxy)-2-methylthiazole-5-carboxamide] | 0.9
9 | CCC(C)(C)NC1CCC(Oc2nc(C)sc2C(=O)N[C@@H]2CCCN(c3cc(C4=C(C)C(=O)OC4)n4ncnc(N)c34)C2)CC1 (stereo partly drawn) [Example 1005, (R)—N-(1-(4-amino-7-(4-methyl-5-oxo-2,5-dihydrofuran-3-yl)pyrrolo[2,1-f][1,2,4]triazin-5-yl)piperidin-3-yl)-2-methyl-4-((4-(tert-pentylamino)cyclohexyl)oxy)thiazole-5-carboxamide] | 0.5
10 | CC1=C(c2cc(N3CCCC(NC(=O)c4sc(C)nc4OC4CCC(N5CCC5)CC4)C3)c3c(N)ncnn23)COC1=O [Example 1006, (R)-N-(1-(4-amino-7-(4-methyl-5-oxo-2,5-dihydrofuran-3-yl)pyrrolo[2,1-f][1,2,4]triazin-5-y1)piperidin-3-y1)-4-((4-(azetidin-1-yl)cyclohexyl)oxy)-2-methylthiazole-5-carboxamide] | 0.8
11 | COC[C@@H](C)N[C@H]1CC[C@@H](Oc2nc(C)sc2C(=O)N[C@@H]2CCCN(c3cc(C4=C(C)C(=O)OC4)n4ncnc(N)c34)C2)CC1 [Example 1007, N-((R)-1-(4-amino-7-(4-methyl-5-oxo-2.5-dihydrofuran-3-yl)pyrrolo[2,1-f][1,2,4]triazin-5-y1)piperidin-3-y1)-4-((4-(((R)-1-methoxypropan-2-yl)amino)cyclohexyl)oxy)-2~methylthiazole-5-carboxamide] | 1
12 | COC[C@@H](C)NC1CCC(Oc2nc(C)sc2C(=O)N[C@@H]2CCCN(c3cc(C4=C(C)C(=O)OC4)n4ncnc(N)c34)C2)CC1 (stereo partly drawn) [Example 1008, N-((R)-1-(4-amino-7-(4-methyl-5-oxo-2,5-dihydrofuran-3-y1)pyrrolo[2,1-f][1,2,4]triazin-5-yl)piperidin-3-y1)-4-((4-(((R)-1-methoxypropan-2-yl)amino)cyclohexyl)oxy)-2-methylthiazole-5-carboxamide] | 1
13 | CCC(CO)NC1CCC(Oc2nc(C)sc2C(=O)NC2CCCN(c3cc(C4=C(C)C(=O)OC4)n4ncnc(N)c34)C2)CC1 [Example 1009, N-((R)-1-(4-amino-7-(4-methyl-5-oxo-2,5-dihydrofuran-3-yl)pyrrolo[2,1-f][1,2,4]triazin-5-y1)piperidin-3-y1)-4-((4-(((S)-1-hydroxybutan-2-yl)amino)cyclohexyl)oxy)-2-methylthiazole-5-carboxamide] | 1.9
14 | CC[C@H](CO)N[C@H]1CC[C@@H](Oc2nc(C)sc2C(=O)N[C@@H]2CCCN(c3cc(C4=C(C)C(=O)OC4)n4ncnc(N)c34)C2)CC1 [Example 1010, N-((R)-1-(4-amino-7-(4-methyl-5-oxo-2,5~dihydrofuran~3-yl)pyrrolo[2,1-f][1,2,4]triazin-5-y1)piperidin-3-y1)-4-((4-(((R)-1-hydroxybutan-2-yl)amino)cyclohexyl)oxy)-2-methylthiazole-5-carboxamide] | 2.1
15 | CCNC1CCC(Oc2nc(C)sc2C(=O)N[C@@H]2CCCN(c3cc(C4=C(C)C(=O)OC4)n4ncnc(N)c34)C2)CC1 (stereo partly drawn) [Example 1011, (R)—N-(1-(4-amino-7-(4-methyl-5-oxo-2,5-dihydrofuran-3-yl)pyrrolo[2,1-f][1,2,4]triazin-5-yl)piperidin-3-yl)-4-((4-(ethylamino)cyclohexyl)oxy)-2-methylthiazole-5-carboxamide] | 2.2
16 | CC1=C(c2cc(N3CCC[C@@H](NC(=O)c4sc(C)nc4O[C@H]4CC[C@@H](NC5CCOC5(C)C)CC4)C3)c3c(N)ncnn23)COC1=O (stereo partly drawn) [Example 1012, N—((R)-1-(4-amino-7-(4-methyl-5-oxo-2,5-dihydrofuran-3-yl)pyrrolo[2,1-f][1,2,4]triazin-5-yl)piperidin-3-yl)-4-(((1S,4S)-4-((2,2-dimethyltetrahydrofuran-3-yl)amino)cyclohexyl)oxy)-2-methylthiazole-5-carboxamide] | 1.1
